This passage reports IC50 results from ChEMBL document CHEMBL3638639, “Chemical compounds” (2015).

This assay addresses T1, Solute carrier family 22 member 12 (Homo sapiens, UniProt Q96S37).
T1 sequence (Q96S37 whole entry): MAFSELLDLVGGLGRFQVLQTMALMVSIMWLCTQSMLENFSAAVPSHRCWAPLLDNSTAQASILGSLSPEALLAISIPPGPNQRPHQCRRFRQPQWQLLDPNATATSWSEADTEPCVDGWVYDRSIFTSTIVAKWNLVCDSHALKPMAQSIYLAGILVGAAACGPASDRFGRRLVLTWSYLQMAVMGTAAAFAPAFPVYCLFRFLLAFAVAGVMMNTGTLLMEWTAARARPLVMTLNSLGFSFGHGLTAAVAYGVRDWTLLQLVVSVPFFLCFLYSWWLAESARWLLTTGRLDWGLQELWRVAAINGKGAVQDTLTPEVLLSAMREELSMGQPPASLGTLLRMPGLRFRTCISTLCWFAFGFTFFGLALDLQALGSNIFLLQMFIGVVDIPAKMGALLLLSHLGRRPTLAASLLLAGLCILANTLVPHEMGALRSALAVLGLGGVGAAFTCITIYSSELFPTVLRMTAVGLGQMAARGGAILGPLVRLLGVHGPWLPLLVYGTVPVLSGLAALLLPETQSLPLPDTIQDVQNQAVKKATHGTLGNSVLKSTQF
The assay is described as follows: [14C]-Uric Uric acid working stock was made by addition of radiolabeled compound to a final concentration of 120 nM in chloride-free buffer. In all wells, the final assay concentration of solvent (DMSO) was 0.25%; the final assay concentration of [14C]-uric acid was 30 nM in chloride-free buffer and the final compound of formula (I) concentrations ranged from 0 to 10 uM.

What is called IC50 is the concentration at which inhibition is half-maximal. Low readings indicate inhibition by little substance, high ones a need for much substance.

Take `N#Cc1ccc(Oc2ccc(S(=O)(=O)Nc3ccc(F)cn3)cc2C#N)c(F)c1`: the midpoint of inhibition, the IC50, lay at 47 nM.

Take `N#Cc1cc(S(=O)(=O)Nc2ccc(F)cn2)ccc1Oc1ccc(Cl)cc1Cl`: the IC50 was 84 nM.

`N#Cc1ccccc1Oc1ccc(S(=O)(=O)Nc2ccc(F)cn2)cc1C#N`: the concentration for half-maximal inhibition (IC50) came out at 495 nM.

`Cc1ccc(F)c(Oc2ccc(S(=O)(=O)Nc3ccc(F)cn3)cc2C#N)c1` returned an IC50 of 117 nM.

`Cc1ccc(Cl)c(Oc2ccc(S(=O)(=O)Nc3ccc(F)cn3)cc2C#N)c1` had an IC50 of 196 nM.

`N#Cc1cc(S(=O)(=O)Nc2ccc(F)cn2)ccc1Oc1cnc(N2CCC2)c(Cl)c1` came in with a concentration for half-maximal inhibition (IC50) of 1000 nM.

`CNc1ncc(Oc2ccc(S(=O)(=O)Nc3ccc(F)cn3)cc2C#N)cc1Cl` showed a half-inhibitory concentration (IC50) of 258 nM.

As to `CN(C)c1ncc(Oc2ccc(S(=O)(=O)Nc3ccc(F)cn3)cc2C#N)cc1Cl`, the half-maximal inhibitory concentration (IC50) is 472 nM.

In the case of `N#Cc1cc(S(=O)(=O)Nc2ccc(F)cn2)ccc1Oc1cnc(N)c(Cl)c1`, the IC50 stood at 87 nM.
